Source: publication PMC9655037, “Alternation of Organ-Specific Exposure in LPS-Induced Pneumonia Mice after the Inhalation of Tetrandrine Is Governed by Metabolizing Enzyme Suppression and Lysosomal Trapping” (International Journal of Molecular Sciences, 2022)

What was measured:
MDR1 (P-gp) = MDR1 (P-gp) (Homo sapiens, UniProt P08183); assay: in vitro
Protocol: MDR1 expressing LLC-PK1 cells or MOCK LLC-PK1 cells were utilized to identify whether P-gp is involved in the efflux transport across the membrane barrier. Cells were cultured as described above. Cells were seeded at a density of 2 × 10^4 in Millicell® 24-well cell culture plates with a 6.5 mm insert (0.4 µm polycarbonate membrane) from Corning (Kennebunk, ME, USA) 7 days before the experiments. On the day of the experiment, transepithelial electrical resistance (TEER) was measured to assess monolayer integrity. After washing the cells twice with HBSS, transport experiments in either the apical-to-basolateral direction (A-B) or the basolateral-to-apical direction (B-A) were conducted. […] After incubating the plates at 37 °C for 2 h, samples from the receiving and donor wells (50 μL) were taken simultaneously. All the samples were stored at −40 °C for LC-MS/MS analysis.
In the bidirectional transport study in LLC-PK1 cells, the following equations were used to calculate Papp values and the MDR1 efflux ratio.

OATP1B3 = target: T1, OATP1B3 (Homo sapiens, UniProt Q9NPD5); assay: Uptake by OATP1B3-expressing HEK293 cells; conditions: human, 5 min
T1 sequence (Q9NPD5 1-702): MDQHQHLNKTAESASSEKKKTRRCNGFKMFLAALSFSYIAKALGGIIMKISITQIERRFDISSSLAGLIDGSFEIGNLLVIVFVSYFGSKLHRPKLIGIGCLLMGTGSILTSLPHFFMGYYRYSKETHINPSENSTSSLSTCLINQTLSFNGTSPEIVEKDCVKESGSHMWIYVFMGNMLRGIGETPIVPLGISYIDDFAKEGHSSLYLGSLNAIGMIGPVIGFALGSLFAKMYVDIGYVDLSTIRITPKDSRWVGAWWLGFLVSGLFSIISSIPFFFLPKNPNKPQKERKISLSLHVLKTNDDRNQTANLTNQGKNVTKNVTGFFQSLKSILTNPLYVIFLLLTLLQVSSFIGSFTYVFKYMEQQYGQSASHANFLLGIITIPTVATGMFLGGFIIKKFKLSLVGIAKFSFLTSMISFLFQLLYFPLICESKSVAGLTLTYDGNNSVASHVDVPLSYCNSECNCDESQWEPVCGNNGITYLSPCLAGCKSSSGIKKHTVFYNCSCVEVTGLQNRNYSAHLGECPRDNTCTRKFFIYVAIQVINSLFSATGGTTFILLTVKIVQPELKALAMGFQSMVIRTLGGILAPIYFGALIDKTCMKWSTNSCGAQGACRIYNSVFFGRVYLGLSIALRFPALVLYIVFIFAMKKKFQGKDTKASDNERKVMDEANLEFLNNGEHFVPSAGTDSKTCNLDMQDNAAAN
Protocol: Expressing OATP1B1/OATP1B3 or MOCK HEK293 cells were utilized to evaluate whether TET is a substrate of these two SLC transporters. Cell culture was performed as mentioned above. Cells were seeded on 96-well plates at the density of 0.8 × 10^5 cells/well. The culture medium was replaced with a medium containing 5 mM sodium butyrate for 24 h before the transport study to enhance the expression of transporters. For the transport assay, the DMEM media were removed and the cells were washed with pre-warmed Krebs–Henseleit buffer twice (0.1 mL/well). The second washing buffer was kept in the wells and the plate was incubated at 37 °C for 5 min before the uptake assay was initiated. […] The incubation solution was removed and the cells were washed with ice-cold transportation buffer three times (0.1 mL/well). A total of 0.1 mL pure water was added to each well to lyse the cells by repeated freezing and thawing (−196 °C–37 °C, three times). The cell lysate was collected and stored at −40 °C for LC-MS/MS analysis and protein measurement.
In the uptake study of TET by OATP1B1 and OATP1B3 expressing the HEK293 cell line, the uptake clearance (U) of the substrate was calculated according to Equation (5), the transporter-mediated uptake ratio (UR) was calculated by dividing the uptake clearance from transporter-expressing cells to that from the mock cells according to Equation (6), and the inhibition ratio (IR) was calculated according to Equation (7), where p represents the protein content and T is the duration of the incubation time. (5) U=Clysate/p×T (6) UR=U/UMOCK (7) IR=(1−Uwith inhibitor−Umock with inhibitor/Uwithout inhibitor−Umock without inhibitor)×100

Sequence of MDR1 (P-gp) (P08183 whole entry): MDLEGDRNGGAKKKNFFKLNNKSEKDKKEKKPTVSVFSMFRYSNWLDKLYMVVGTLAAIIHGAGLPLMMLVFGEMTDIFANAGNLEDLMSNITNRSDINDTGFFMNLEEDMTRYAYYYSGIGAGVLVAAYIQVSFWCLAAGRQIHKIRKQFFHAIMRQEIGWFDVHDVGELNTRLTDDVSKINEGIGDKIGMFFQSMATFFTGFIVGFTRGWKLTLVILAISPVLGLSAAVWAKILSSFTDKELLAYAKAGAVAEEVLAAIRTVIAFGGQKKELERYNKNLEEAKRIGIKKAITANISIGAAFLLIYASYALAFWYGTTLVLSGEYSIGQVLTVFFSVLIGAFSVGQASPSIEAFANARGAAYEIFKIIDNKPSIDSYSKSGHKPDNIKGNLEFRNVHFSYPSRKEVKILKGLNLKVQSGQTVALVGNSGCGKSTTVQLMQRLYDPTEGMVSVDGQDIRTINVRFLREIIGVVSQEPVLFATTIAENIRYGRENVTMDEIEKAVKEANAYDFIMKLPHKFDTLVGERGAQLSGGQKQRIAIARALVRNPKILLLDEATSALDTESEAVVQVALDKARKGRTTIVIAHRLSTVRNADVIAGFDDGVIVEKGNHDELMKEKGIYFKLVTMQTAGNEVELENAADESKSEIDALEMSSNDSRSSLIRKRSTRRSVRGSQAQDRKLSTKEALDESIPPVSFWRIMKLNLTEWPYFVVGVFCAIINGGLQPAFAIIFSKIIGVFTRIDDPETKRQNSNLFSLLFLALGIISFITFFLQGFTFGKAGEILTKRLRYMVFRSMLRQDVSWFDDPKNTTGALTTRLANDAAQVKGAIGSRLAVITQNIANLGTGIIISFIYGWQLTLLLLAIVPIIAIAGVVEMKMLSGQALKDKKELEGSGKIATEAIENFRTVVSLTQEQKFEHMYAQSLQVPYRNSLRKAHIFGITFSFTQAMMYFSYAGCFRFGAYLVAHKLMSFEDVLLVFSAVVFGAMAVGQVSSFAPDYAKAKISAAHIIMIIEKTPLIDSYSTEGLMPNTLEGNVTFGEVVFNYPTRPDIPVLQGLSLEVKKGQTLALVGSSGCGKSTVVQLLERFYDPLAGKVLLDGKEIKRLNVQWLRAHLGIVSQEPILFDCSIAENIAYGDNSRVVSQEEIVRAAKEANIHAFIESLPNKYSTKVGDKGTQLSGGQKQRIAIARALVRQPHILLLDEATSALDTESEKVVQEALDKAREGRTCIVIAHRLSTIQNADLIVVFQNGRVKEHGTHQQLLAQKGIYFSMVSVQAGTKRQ

Work on COc1ccc2cc1Oc1ccc(cc1)C[C@H]1c3cc(c(OC)cc3CCN1C)Oc1c(OC)c(OC)cc3c1[C@H](C2)N(C)CC3 [TET, Tetrandrine] yielded a Papp A→B at 2 h (MDR1 (P-gp)) of 0.52 ± 0.19 ×10⁻⁶ cm/s, a Papp B→A at 2 h (MDR1 (P-gp); human, LLC-PK1) of 14 ± 2.95 ×10⁻⁶ cm/s and an efflux ratio at 2 h (MDR1 (P-gp); human, LLC-PK1) of 32.5. For the same compound, the “Inhibition Ratio” value (OATP1B3; 5 µM) was 20.6, the “Uptake Clearance” value (OATP1B3; 5 µM) was 120 ± 8.61 nM/min/mg Protein and the “Uptake Ratio” value (OATP1B3; 5 µM) was 1.01. The “Uptake Clearance” value (OATP1B3; 5 μM) was 151 ± 25.5 nM/min/mg Protein.
